Data reported in PubChem BioAssay AID2060607 (Molecular Pharmacology Branch, DTP, NCI, 2025).

Tested on: 876862-298-R-J1-PDC complex spheroids, viability % test/control
Assay: Anticancer human tumor 876862-298-R-J1-PDC patient-derived endometrial carcinoma cell line growth inhibition [CLK]
Settings: for IC50: curve of first compound; for viability, T/C: stronger effect = lower value
Outline: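 Multi-cell-type spheroids combined patient-derived tumor cells with HUVEC endothelial cells and human mesenchymal stem cells. Paired agents were dosed in half-log steps down from about clinical Cmax, or from 10 microM where Cmax was unknown.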
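Also: spheroids exposed to drugs for 7 days before readout.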
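For viability, T/C in this document: 100% = DMSO vehicle control wells.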

Work on C=CC(=O)Nc1cc(Nc2nccc(-c3cn(C)c4ccccc34)n2)c(OC)cc1N(C)CCN(C)C + CNC(=O)c1ccc(Nc2nc(OC3CCCC3)c3c(-c4ccc5nc(C)oc5c4)c[nH]c3n2)c(OC)c1 yielded an IC50 (second compound 0.0316 µM) of 0.17 µM, an IC50 (second compound 0.1 µM) of under 0.000949 µM and an IC50 (second compound 0.316 µM) of under 0.000949 µM. For the same compound, the IC50 (second compound 1 µM) was under 0.000949 µM, the IC50 (second compound 3.16 µM) was under 0.000949 µM and the IC50 (second compound 10 µM) was under 0.000949 µM. For the same compound, the viability, T/C (second compound 0.0316 µM, first compound 0.000949 µM) was 74.5%, the viability, T/C (second compound 0.0316 µM, first compound 0.003 µM) was 79.6% and the viability, T/C (second compound 0.0316 µM, first compound 0.00949 µM) was 69.1%. It also gave a viability, T/C (second compound 0.0316 µM, first compound 0.03 µM) of 64%, a viability, T/C (second compound 0.0316 µM, first compound 0.0949 µM) of 53.5% and a viability, T/C (second compound 0.0316 µM, first compound 0.3 µM) of 46.6%. For the same compound, the viability, T/C (second compound 0.1 µM, first compound 0.000949 µM) was 49.2%, the viability, T/C (second compound 0.1 µM, first compound 0.003 µM) was 46% and the viability, T/C (second compound 0.1 µM, first compound 0.00949 µM) was 44.2%. The viability, T/C (second compound 0.1 µM, first compound 0.03 µM) was 44.1%, the viability, T/C (second compound 0.1 µM, first compound 0.0949 µM) was 41.7% and the viability, T/C (second compound 0.1 µM, first compound 0.3 µM) was 31.3%. It also gave a viability, T/C (second compound 0.316 µM, first compound 0.000949 µM) of 46.4%, a viability, T/C (second compound 0.316 µM, first compound 0.003 µM) of 41.3% and a viability, T/C (second compound 0.316 µM, first compound 0.00949 µM) of 42.3%. It also gave a viability, T/C (second compound 0.316 µM, first compound 0.03 µM) of 41.1%, a viability, T/C (second compound 0.316 µM, first compound 0.0949 µM) of 34% and a viability, T/C (second compound 0.316 µM, first compound 0.3 µM) of 27.8%. For the same compound, the viability, T/C (second compound 1 µM, first compound 0.000949 µM) was 36.5%, the viability, T/C (second compound 1 µM, first compound 0.003 µM) was 30.8% and the viability, T/C (second compound 1 µM, first compound 0.00949 µM) was 32.7%. The viability, T/C (second compound 1 µM, first compound 0.03 µM) was 26.9%, the viability, T/C (second compound 1 µM, first compound 0.0949 µM) was 30.2% and the viability, T/C (second compound 1 µM, first compound 0.3 µM) was 27.4%. It also gave a viability, T/C (second compound 3.16 µM, first compound 0.000949 µM) of 24.1%, a viability, T/C (second compound 3.16 µM, first compound 0.003 µM) of 27.6% and a viability, T/C (second compound 3.16 µM, first compound 0.00949 µM) of 19.2%. The viability, T/C (second compound 3.16 µM, first compound 0.03 µM) was 20.9%, the viability, T/C (second compound 3.16 µM, first compound 0.0949 µM) was 20% and the viability, T/C (second compound 3.16 µM, first compound 0.3 µM) was 19%. It also gave a viability, T/C (second compound 10 µM, first compound 0.000949 µM) of 23.1%, a viability, T/C (second compound 10 µM, first compound 0.003 µM) of 23.4% and a viability, T/C (second compound 10 µM, first compound 0.00949 µM) of 21.7%. It also gave a viability, T/C (second compound 10 µM, first compound 0.03 µM) of 19.7%, a viability, T/C (second compound 10 µM, first compound 0.0949 µM) of 17.9% and a viability, T/C (second compound 10 µM, first compound 0.3 µM) of 17.4%.

With CC1(C)CCC(CN2CCN(c3ccc(C(=O)NS(=O)(=O)c4ccc(NCC5CCOCC5)c([N+](=O)[O-])c4)c(Oc4cnc5[nH]ccc5c4)c3)CC2)=C(c2ccc(Cl)cc2)C1 + CNC(=O)c1ccc(Nc2nc(OC3CCCC3)c3c(-c4ccc5nc(C)oc5c4)c[nH]c3n2)c(OC)c1 the IC50 (second compound 0.0316 µM) was 5.4 µM, the IC50 (second compound 0.1 µM) was 0.473 µM and the IC50 (second compound 0.316 µM) was under 0.0316 µM. For the same compound, the IC50 (second compound 1 µM) was under 0.0316 µM, the IC50 (second compound 3.16 µM) was under 0.0316 µM and the IC50 (second compound 10 µM) was under 0.0316 µM. For the same compound, the viability, T/C (second compound 0.0316 µM, first compound 0.0316 µM) was 69.5%, the viability, T/C (second compound 0.0316 µM, first compound 0.1 µM) was 88.6% and the viability, T/C (second compound 0.0316 µM, first compound 0.316 µM) was 83%. For the same compound, the viability, T/C (second compound 0.0316 µM, first compound 1 µM) was 90.6%, the viability, T/C (second compound 0.0316 µM, first compound 3.16 µM) was 86.1% and the viability, T/C (second compound 0.0316 µM, first compound 10 µM) was 11.2%. For the same compound, the viability, T/C (second compound 0.1 µM, first compound 0.0316 µM) was 48.2%, the viability, T/C (second compound 0.1 µM, first compound 0.1 µM) was 52.2% and the viability, T/C (second compound 0.1 µM, first compound 0.316 µM) was 52.3%. The viability, T/C (second compound 0.1 µM, first compound 1 µM) was 49.2%, the viability, T/C (second compound 0.1 µM, first compound 3.16 µM) was 39.2% and the viability, T/C (second compound 0.1 µM, first compound 10 µM) was 11.8%. The viability, T/C (second compound 0.316 µM, first compound 0.0316 µM) was 45.1%, the viability, T/C (second compound 0.316 µM, first compound 0.1 µM) was 39.5% and the viability, T/C (second compound 0.316 µM, first compound 0.316 µM) was 47.9%. For the same compound, the viability, T/C (second compound 0.316 µM, first compound 1 µM) was 46.1%, the viability, T/C (second compound 0.316 µM, first compound 3.16 µM) was 35.9% and the viability, T/C (second compound 0.316 µM, first compound 10 µM) was 9.32%. The viability, T/C (second compound 1 µM, first compound 0.0316 µM) was 37.7%, the viability, T/C (second compound 1 µM, first compound 0.1 µM) was 34.4% and the viability, T/C (second compound 1 µM, first compound 0.316 µM) was 32.3%. The viability, T/C (second compound 1 µM, first compound 1 µM) was 33.2%, the viability, T/C (second compound 1 µM, first compound 3.16 µM) was 26.4% and the viability, T/C (second compound 1 µM, first compound 10 µM) was 9.54%. For the same compound, the viability, T/C (second compound 3.16 µM, first compound 0.0316 µM) was 23.6%, the viability, T/C (second compound 3.16 µM, first compound 0.1 µM) was 23.8% and the viability, T/C (second compound 3.16 µM, first compound 0.316 µM) was 25.4%. The viability, T/C (second compound 3.16 µM, first compound 1 µM) was 21.6%, the viability, T/C (second compound 3.16 µM, first compound 3.16 µM) was 19.4% and the viability, T/C (second compound 3.16 µM, first compound 10 µM) was 5.35%. For the same compound, the viability, T/C (second compound 10 µM, first compound 0.0316 µM) was 19.9%, the viability, T/C (second compound 10 µM, first compound 0.1 µM) was 19.8% and the viability, T/C (second compound 10 µM, first compound 0.316 µM) was 17.6%. For the same compound, the viability, T/C (second compound 10 µM, first compound 1 µM) was 20.3%, the viability, T/C (second compound 10 µM, first compound 3.16 µM) was 14.9% and the viability, T/C (second compound 10 µM, first compound 10 µM) was 5.66%.
